{
  "source": "patent US10598672B2",
  "about": "“Methods and compositions for diagnosing and treating loss and/or distortion of taste or smell” (Cyrano Therapeutics, Inc., priority 2014, dated 2020)",
  "key": {"[1]": {"tested_on": "patients with taste dysfunction", "experiment": "Gustometry: DT, RT, ME (and HR) for NaCl, sucrose, HCl, urea", "type": "in vivo, human", "description": "Smell and taste functions under each study condition were measured by standardized psychophysical sensory testing techniques. Measurements included determination of detection thresholds (DTs), recognition thresholds (RTs), magnitude estimation (ME), and hedonic response (HR) for 4 odors (i.e., pyridine [dead fish], nitrobenzene [bitter almond], thiophene [petroleum], and amyl acetate [banana oil]) (olfactometry) and for 4 tastants (i.e., sodium chloride [salt], sucrose [sweet], hydrochloride [sour], and urea [bitter]) (gustometry). These techniques have been previously described with olfactometry confirmed in a prior controlled double-blind clinical trial. Each measurement was performed independent of any prior knowledge of response.\nGustometry measurements included measurements of detection (DT) and recognition (RT) thresholds and magnitude estimation (ME) for four tastants [NaCl (salt), sucrose (sweet), HCl (sour) and urea (bitter)]. Abnormalities of taste function were measured by increased DT or RT above normal (decreased sensitivity) and/or decreased ME (decreased sensitivity) for one or more of the tastants presented."}, "patients with hyposmia": {"tested_on": "patients with hyposmia", "experiment": "Olfactometry: DT, RT, ME and H for pyridine, nitrobenzene, thiophene, amyl acetate", "type": "in vivo, human", "settings": "for AMYL ACETATE DT, detection threshold / AMYL ACETATE H, hedonic value / AMYL ACETATE ME, magnitude estimation / AMYL ACETATE RT, recognition threshold / NI[…], detection threshold / NI[…], hedonic value / NI[…], magnitude estimation / NI[…], recognition threshold / PYRIDINE DT, detection threshold / PYRIDINE H, hedonic value / PYRIDINE ME, magnitude estimation / PYRIDINE RT, recognition threshold / THIOPHENE DT, detection threshold / THIOPHENE H, hedonic value / THIOPHENE ME, magnitude estimation / THIOPHENE RT, recognition threshold: hyposmic, oral theophylline, Mean ± SEM"}, "[2]": {"settings": "TH[…] (81) patients with taste dysfunction, Mean ± SEM"}, "[3]": {"settings": "after intranasal treatment vs before treatment or after oral treatment"}, "[4]": {"settings": "after oral treatment vs before treatment"}, "[5]": {"settings": "ALL PATIENTS (31) treated with oral theophylline"}, "[6]": {"settings": "ALLERGIC RHINITIS (11) treated with oral theophylline"}, "[7]": {"settings": "CONGENITAL (9) treated with oral theophylline"}, "[8]": {"settings": "PIHH (10) treated with oral theophylline"}, "[9]": {"settings": "POST GENERAL ANESTHESIA (1) treated with oral theophylline"}},
  "note": "Marks after values point to notes of the source that are not given here.",
  "data": [
    {"compound": "Cn1c(=O)c2[nH]cnc2n(C)c1=O", "note": "[theophylline]", "values": [
      {"measurement": "NaCl DT, Detection Threshold", "setting": "[1]; [2]", "value": "3.4 ± 0.2^"},
      {"measurement": "NaCl ME, Magnitude Estimation", "setting": "[1]; [2]", "value": "58 ± 5"},
      {"measurement": "NaCl RT, Recognition Threshold", "setting": "[1]; [2]", "value": "3.6 ± 0.2"},
      {"measurement": "SCl DT, Detection Threshold", "setting": "[1]; [2]", "value": "3.6 ± 0.2"},
      {"measurement": "SCl ME, Magnitude Estimation", "setting": "[1]; [2]", "value": "54 ± 5"},
      {"measurement": "SCl RT, Recognition Threshold", "setting": "[1]; [2]", "value": "3.7 ± 0.3"},
      {"measurement": "SUCROSE DT, Detection Threshold", "setting": "[1]; [2]", "value": "3.3 ± 0.2"},
      {"measurement": "SUCROSE ME, Magnitude Estimation", "setting": "[1]; [2]", "value": "49 ± 5"},
      {"measurement": "SUCROSE RT, Recognition Threshold", "setting": "[1]; [2]", "value": "3.6 ± 0.2"},
      {"measurement": "UREA DT, Detection Threshold", "setting": "[1]; [2]", "value": "3.9 ± 0.3"},
      {"measurement": "UREA ME, Magnitude Estimation", "setting": "[1]; [2]", "value": "54 ± 5"},
      {"measurement": "UREA RT, Recognition Threshold", "setting": "[1]; [2]", "value": "3.9 ± 0.3"},
      {"measurement": "DTs and RTs for all tastants", "setting": "[1]; [3]", "value": "lower (more sensitive)"},
      {"measurement": "HRs for sucrose", "setting": "[1]; [3]", "value": "more positive (more pleasant)"},
      {"measurement": "Hedonic responses for sodium chloride, hydrochloride, and urea", "setting": "[1]; [3]", "value": "more negative (more unpleasant)"},
      {"measurement": "Magnitude estimations for all tastants", "setting": "[1]; [3]", "value": "higher (more intense)"},
      {"measurement": "DTs for sucrose and hydrochloride and RTs for sodium chloride, hydrochloride, and urea", "setting": "[1]; [4]", "value": "decreased (more sensitive)"},
      {"measurement": "HR for hydrochloride and urea", "setting": "[1]; [4]", "value": "increased (more unpleasant)"},
      {"measurement": "Magnitude estimations for all tastants", "setting": "[1]; [4]", "value": "increased (more sensitive)"},
      {"measurement": "gustometric functions", "setting": "[1]; patients with taste dysfunction, oral treatment", "value": "improving gustometric functions"},
      {"measurement": "SMELL IMPROVEMENT Patient (%)", "setting": "patients with hyposmia; [5]", "value": 61, "unit": "%"},
      {"measurement": "SMELL IMPROVEMENT Patient Number", "setting": "patients with hyposmia; [5]", "value": 19},
      {"measurement": "SMELL IMPROVEMENT Patient (%)", "setting": "patients with hyposmia; [6]", "value": 45, "unit": "%"},
      {"measurement": "SMELL IMPROVEMENT Patient Number", "setting": "patients with hyposmia; [6]", "value": 5},
      {"measurement": "SMELL IMPROVEMENT Patient (%)", "setting": "patients with hyposmia; [7]", "value": 56, "unit": "%"},
      {"measurement": "SMELL IMPROVEMENT Patient Number", "setting": "patients with hyposmia; [7]", "value": 5},
      {"measurement": "SMELL IMPROVEMENT Patient (%)", "setting": "patients with hyposmia; [8]", "value": 80, "unit": "%"},
      {"measurement": "SMELL IMPROVEMENT Patient Number", "setting": "patients with hyposmia; [8]", "value": 8},
      {"measurement": "SMELL IMPROVEMENT Patient (%)", "setting": "patients with hyposmia; [9]", "value": 100, "unit": "%"},
      {"measurement": "SMELL IMPROVEMENT Patient Number", "setting": "patients with hyposmia; [9]", "value": 1},
      {"measurement": "AMYL ACETATE DT, detection threshold", "setting": "patients with hyposmia; TREATED MEN (19)", "value": "4.7 ± 0.9^b BU"},
      {"measurement": "AMYL ACETATE H, hedonic value", "setting": "patients with hyposmia; TREATED MEN (19)", "value": "3 ± 3", "unit": "%"},
      {"measurement": "AMYL ACETATE ME, magnitude estimation", "setting": "patients with hyposmia; TREATED MEN (19)", "value": "17 ± 5", "unit": "%"},
      {"measurement": "AMYL ACETATE RT, recognition threshold", "setting": "patients with hyposmia; TREATED MEN (19)", "value": "5.3 ± 0.9^a BU"},
      {"measurement": "NI[…], detection threshold", "setting": "patients with hyposmia; TREATED MEN (19)", "value": "4.8 ± 1.1^b BU"},
      {"measurement": "NI[…], hedonic value", "setting": "patients with hyposmia; TREATED MEN (19)", "value": "6 ± 5", "unit": "%"},
      {"measurement": "NI[…], magnitude estimation", "setting": "patients with hyposmia; TREATED MEN (19)", "value": "19 ± 5", "unit": "%"},
      {"measurement": "NI[…], recognition threshold", "setting": "patients with hyposmia; TREATED MEN (19)", "value": "5.2 ± 1.2^b BU"},
      {"measurement": "PYRIDINE DT, detection threshold", "setting": "patients with hyposmia; TREATED MEN (19)", "value": "4.8 ± 0.9^a BU"},
      {"measurement": "PYRIDINE H, hedonic value", "setting": "patients with hyposmia; TREATED MEN (19)", "value": "−30 ± 7", "unit": "%"},
      {"measurement": "PYRIDINE ME, magnitude estimation", "setting": "patients with hyposmia; TREATED MEN (19)", "value": "36 ± 7", "unit": "%"},
      {"measurement": "PYRIDINE RT, recognition threshold", "setting": "patients with hyposmia; TREATED MEN (19)", "value": "5.6 ± 1.0^c BU"},
      {"measurement": "THIOPHENE DT, detection threshold", "setting": "patients with hyposmia; TREATED MEN (19)", "value": "5.6 ± 0.9^b BU"},
      {"measurement": "THIOPHENE H, hedonic value", "setting": "patients with hyposmia; TREATED MEN (19)", "value": "−7 ± 3", "unit": "%"},
      {"measurement": "THIOPHENE ME, magnitude estimation", "setting": "patients with hyposmia; TREATED MEN (19)", "value": "15 ± 5", "unit": "%"},
      {"measurement": "THIOPHENE RT, recognition threshold", "setting": "patients with hyposmia; TREATED MEN (19)", "value": "7.6 ± 1.0", "unit": "BU"},
      {"measurement": "AMYL ACETATE DT, detection threshold", "setting": "patients with hyposmia; TREATED WOMEN (12)", "value": "7.4 ± 1.1", "unit": "BU"},
      {"measurement": "AMYL ACETATE H, hedonic value", "setting": "patients with hyposmia; TREATED WOMEN (12)", "value": "2 ± 6", "unit": "%"},
      {"measurement": "AMYL ACETATE ME, magnitude estimation", "setting": "patients with hyposmia; TREATED WOMEN (12)", "value": "22 ± 7", "unit": "%"},
      {"measurement": "AMYL ACETATE RT, recognition threshold", "setting": "patients with hyposmia; TREATED WOMEN (12)", "value": "8.7 ± 1.0", "unit": "BU"},
      {"measurement": "NI[…], detection threshold", "setting": "patients with hyposmia; TREATED WOMEN (12)", "value": "6.8 ± 1.4", "unit": "BU"},
      {"measurement": "NI[…], hedonic value", "setting": "patients with hyposmia; TREATED WOMEN (12)", "value": "8 ± 7", "unit": "%"},
      {"measurement": "NI[…], magnitude estimation", "setting": "patients with hyposmia; TREATED WOMEN (12)", "value": "25 ± 8", "unit": "%"},
      {"measurement": "NI[…], recognition threshold", "setting": "patients with hyposmia; TREATED WOMEN (12)", "value": "7.3 ± 1.1", "unit": "BU"},
      {"measurement": "PYRIDINE DT, detection threshold", "setting": "patients with hyposmia; TREATED WOMEN (12)", "value": "7.1 ± 0.9", "unit": "BU"},
      {"measurement": "PYRIDINE H, hedonic value", "setting": "patients with hyposmia; TREATED WOMEN (12)", "value": "−38 ± 8", "unit": "%"},
      {"measurement": "PYRIDINE ME, magnitude estimation", "setting": "patients with hyposmia; TREATED WOMEN (12)", "value": "42 ± 9", "unit": "%"},
      {"measurement": "PYRIDINE RT, recognition threshold", "setting": "patients with hyposmia; TREATED WOMEN (12)", "value": "8.0 ± 1.0", "unit": "BU"},
      {"measurement": "THIOPHENE DT, detection threshold", "setting": "patients with hyposmia; TREATED WOMEN (12)", "value": "7.1 ± 1.2", "unit": "BU"},
      {"measurement": "THIOPHENE H, hedonic value", "setting": "patients with hyposmia; TREATED WOMEN (12)", "value": "−19 ± 6", "unit": "%"},
      {"measurement": "THIOPHENE ME, magnitude estimation", "setting": "patients with hyposmia; TREATED WOMEN (12)", "value": "30 ± 7", "unit": "%"},
      {"measurement": "THIOPHENE RT, recognition threshold", "setting": "patients with hyposmia; TREATED WOMEN (12)", "value": "8.1 ± 1.3", "unit": "BU"},
      {"measurement": "DTs and RTs for each odor", "setting": "patients with hyposmia; [3]", "value": "lower (more sensitive)"},
      {"measurement": "Hedonic responses to nitrobenzene", "setting": "patients with hyposmia; [3]", "value": "more positive (more pleasant)"},
      {"measurement": "Hedonic responses to thiophene", "setting": "patients with hyposmia; [3]", "value": "more negative (more unpleasant)"}
    ]}
  ]
}
